We go through 3 compounds from patent US12600701B2, “N-acylhydrazonic compounds, use in the treatment of amyloid and non-amyloid degenerative aggregopathies, and pharmaceutical composition” (FACULDADES CATÓLICAS, priority 2020, dated 2026).

The subject of data set [1] is SynT-Sph1 aggregation in H4 cells. The data set can be described thus: Cellular model of α-synuclein (SynT-Sph1) aggregation in H4 cells. The class given is cell-based, human. Here is the method: The isoniazid-derived hydrazone of formula (IV) was evaluated in greater detail in a cellular model of α-synuclein aggregation in H4 cells. This model consists of the co-transfection of an α-synuclein construct containing the first 83 amino acids of the EGFP protein linked to its C-terminal portion (SynT) with the synphilin-1 protein (Sph1), resulting in positive inclusions for α-Syn which can be observed by fluorescence microscopy after immunostaining.

Data set [2] is described as follows: Affinity constant for copper(II), Method of Continuous Variations (Job plot). The class given is binding. Here is the method: Affinity constant for copper(II): The affinity constant of compound (IV) for copper(II) was determined using the Method of Continuous Variations, which consists of preparing mixtures of different molar fractions of ligand and metal, followed by measuring their UV-Vis absorbance.
From this information it is possible to calculate the complex formation constant which, for the compound of formula (IV), has a value of 5.66±0.08 at 25° C.

Data set [3] is described as follows: Stability in aqueous solution containing 1% DMSO (UV-Vis absorption). Type of data set: physicochemical. Particulars: 1% DMSO/water, 5×10^−5 mol L^−1, 17° C., over 4 days. Here is the method:
Stability in aqueous solution containing 1% DMSO: Compounds were prepared at low concentrations (5×10^−5 mol L^−1) in a solution containing 1% DMSO in ultra-pure water. Absorption spectra were obtained between 200 and 800 nm in a molecular absorption spectrophotometer at regular intervals over 12 hours. A final measurement was performed after four days. The room temperature was maintained at 17° C. throughout the experiment.

Data set [4] in a line: Experimental octanol-water partition coefficient (log P). Type of data set: physicochemical. Particulars: octanol / Tris buffer 10^−2 mol L^−1 pH 7.4, 37° C., triplicate. Here is the method: Tris buffer 10^−2 mol L^−1 pH 7.4 was used as the aqueous phase. Both phases were prepared separately, and contained the hydrazone of interest at low concentrations (5×10^−5 mol L^−1). An ultraviolet/visible molecular absorption spectrum was acquired for each of the phases before mixing. The mixture was stirred at 37° C., protected from light. At the end of the incubation, the mixture was centrifuged for 10 minutes at 3000 rpm, and the layers were separated using pipettes. The concentrations in each phase were measured at the wavelength of greatest absorption of each hydrazone in the respective solvent, through calibration curves. Each compound was analyzed in triplicate and P was calculated as the average concentration ratio Co/Ca where Co is the concentration in the organic phase and Ca in the aqueous phase.
Experimental results were obtained using buffer with physiological pH, and the mixing and separation steps were performed at average human body temperature. This gives the experiment greater biological relevance compared to computational calculations. Even so, the values determined are in agreement with those calculated.

For data set [5] the following is noted: rats, intraperitoneal injection, HPLC detection in brain; earlier work of the group; cited from earlier work.
Data set [6] concerns mice with intracerebroventricular infusion of Aβ oligomers. Particulars: earlier work of the group, cited from earlier work.
For a further data set, the system named is healthy rats. Particulars: earlier work of the group; cited from earlier work.

By logP is commonly meant the decadic logarithm of the partition coefficient of the neutral form, usually between octanol and water.

`Cn1ccnc1/C=N/NC(=O)c1ccncc1` [(IV), 1-methyl-1H-imidazole-2-carboxaldehyde isonicotinoyl hydrazone]: the “levels of α-Syn expression” value in data set [1] is on record as “does not change”. Moreover, in data set [1] (after treatment), the “morphology of the aggregates” value is listed as “less compact after treatment”. Besides, in data set [2] (ML-type complex (1:1), 25° C.), the “complex formation constant with copper(II)” value was found to be 5.66±0.08. In addition, in data set [2] (clioquinol under similar conditions), the “formation constant compared with clioquinol” value is given as “approximately one thousand times lower”. Moreover, in data set [3], the “decrease in the intensity of the hydrazonic band” value is on record as “less than 2%”. The compound further came in with a logP in data set [4] of 0.67 ± 0.03.

Regarding `Cn1ccnc1/C=N/NC(=O)c1ccccc1` [(V), 1-methyl-1H-imidazole-2-carboxaldehyde benzoyl hydrazone], the logP in data set [4] amounted to 1.49 ± 0.13.

As to `O=C(NN=Cc1ccc2cccc(O)c2n1)c1ccncc1` [INHHQ, 8-hydroxyquinoline-2-carboxaldehyde isonicotinoyl hydrazone], the “crossing of the blood-brain barrier” value in data set [5] is “capable of crossing the blood-brain barrier”. Also, the “defensive responses related to fear and anxiety” value in data set [6] (healthy mice) is recorded as “does not alter”. In data set [6] (mice, intracerebroventricular infusion of Aβ oligomers), the “short- and long-term memory damage induced by Aβ oligomers” value was “capable of preventing”. For the same compound, in data set [3], the “decrease in the intensity of the hydrazonic band” value is “approximately 12%”. The acute toxicity entry with healthy rats is “non-toxic”.
